Experimental data: paper PMC11530130, “Peripherally restricted PICK1 inhibitor mPD5 ameliorates pain behaviors in murine inflammatory and neuropathic pain models” (JCI Insight, 2024)
Values joined by “and” are separate entries in the source; they are usually repeats but may differ in a detail not shown here. Equal values may be shown once.

Tests used:
Format in all cases: in vivo, mouse
[1] = tested on: mice, CIBP model (NCTC 2472 cell inoculation); assay: Cancer-induced bone pain (CIBP) model, von Frey; conditions: for effect on PWT: CIBP, female mice
Procedure: (§1) solution (0.05 mg/kg) injected s.c. 30 min before surgery (10 μL/g). For surgery, mice were anaesthetised with ketamine (100 mg/kg, i.p.) and xylazine (10 mg/kg, i.p.) (volume 10 µL/g) with 100 μL of 1% xylocaine solution infiltrated at the site of the incision. The distal trifurcation of the sciatic nerve was identified, and the tibial and common peroneal branches were ligated with polypropylene nonabsorbable 6-0 sutures (Ethicon) and 1 mm was cut out, leaving the sural branch intact. The wound was closed with sutures, and the animals were allowed to recover and returned to their cages. Two subcutaneous injections of buprenorphine (0.05 mg/kg) were performed with an 8 to 12 hours delay decreasing pain due to the surgery […]
(§2) The remaining SNI pain experiments were performed in-house using the following procedure.
(§3) SNI surgery was performed on the left hindleg of C57BL/6J male and female mice (Janvier, France) under 2% isoflurane anaesthesia. Skin on the lateral surface was incised between hip and knee followed by lengthwise division of the biceps femoris muscle leading to exposure of the three branches of the sciatic nerve. Sural branch was left intact, while the peroneal and tibial branches were ligated with a single surgical knot and axotomized distally of the ligation.
(§4) Wounds were closed with surgical glue or medical clips and animals were monitored daily for signs of stress or discomfort, but in all cases recovered uneventfully.
(§5) Induction of Diabetic neuropathy (STZ model).
(§6) Diabetes was induced by a single i.p. injection of […] streptozocin (STZ) solution (100 μL/10 g, Sigma-Aldrich S0130, batch #WXBB7152V) in male seven-week-old C57BL/6J (Charles River) mice. Glycemia was tested before, and seven days after injection. All injected mice had blood glucose concentration >350 mg/dL from day seven and were used for analgesic testing of the compounds from day 14. One mouse had to be euthanized at seven days post injection. This experiment was performed by Phenotype Expertise, Marseilles, France - Pain and CNS behaviour CRO under supervision of Stéphane Gaillard, PhD (CEO).
(§7) Induction of cancer induced bone pain (CIBP model).
(§8) Osteosarcoma cell line NCTC 2472 (American Type Culture Collection, CCL-11TM) was cultured for two weeks prior to surgery in NCTC-135 medium (Sigma-Aldrich, Denmark) supplemented with sodium hydrogen carbonate and 10% equine serum (Sigma-Aldrich, Denmark). On the day of surgery, cells were washed with PBS and incubated with 3 mL trypsin-EDTA for five min followed by centrifugation (2800 rpm, 3 min). Supernatant was removed, and cell pellet resuspended in PBS to obtain a cell density of 10^7 cells/mL.
(§9) Two separate cohorts of female C3H/HeNHsd mice (Envigo, Netherlands) of 7-8 weeks, were anaesthetized with 6.25 mg/kg xylazine (Rompun vet, 20 mg/mL, Bayer, KVP Pharma + Veterinär Produkte GmbH, Germany, Batch: KV02BHF) and 43.75 mg/kg ketamine (Ketaminol vet, 100 mg/mL, MSD Animal Health, AN Boxmeer, The Netherlands, Batch:
(§10) A140A01) and received 1.0-1.2% isoflurane (1000 mg/g isoflurane, Attane vet, ScanVet, Piramal Critical Care Ltd., UK, Batch: G123J18B) during surgery. The mouse was placed on a 37 °C heating pad. Both hind legs were shaved, and a small horizontal incision was made under the knee followed by a vertical incision of approximately 0.5 cm until the patellar tendon was exposed. The patellar tendon was moved to the lateral side exposing the distal epiphysis of the femur. A hole was made in the middle of the distal epiphysis by gently pushing a 30 G needle (0.3x12 mm, 30 Gx1/2”, Luer-Lock, CHIRANA T. Injecta, CH30012) through the bone while rotating. The position of the needle was confirmed by X-ray imaging (IVIS Lumina XR Apparatus, Caliper Life Sciences, Belgium). Following resuspension, 10 μL, corresponding to […]
(§11) […] NCTC 2472 cells or PBS (sham mice), was injected in the bone marrow cavity with an insulin syringe (1 mL Luer, BD PlastipakTM, 303172) attached to a 30 G needle and left in the […]
(§12) femur for one min. […]

[2] = tested on: mice, CIBP model (NCTC 2472 cell inoculation); assay: CIBP model, static weight bearing; conditions: for effect on weight-bearing ratio: CIBP, female mice; for static weight bearing (Fig S7C): CIBP mice, individual animals
Procedure: as §1, §2, §3, §4, §5, §6, §7, §8, §9, §10, §11, §12

[3] = tested on: mice, CIBP model (NCTC 2472 cell inoculation); assay: CIBP model, limb use score; conditions: for effect on limb-use score: CIBP, female mice; for limb use score (Fig S7B): CIBP mice, individual animals
Procedure: as §1, §2, §3, §4, §5, §6, §7, §8, §9, §10, §11, §12

Question: `CCCCCCCCCCCCCC(=O)N(CCOCCOCCC(=O)N[C@@H](Cc1c[nH]cn1)C(=O)N[C@@H](Cc1c[nH]c2ccccc12)C(=O)N[C@@H](CC(C)C)C(=O)N[C@@H](CCCCN)C(=O)N[C@H](C(=O)O)C(C)C)CCOCCOCCC(=O)N[C@@H](Cc1c[nH]cn1)C(=O)N[C@@H](Cc1c[nH]c2ccccc12)C(=O)N[C@@H](CC(C)C)C(=O)N[C@@H](CCCCN)C(=O)N[C@H](C(=O)O)C(C)C` [mPD5, myristoyl-NPEG4-(HWLKV)2] was tested. Which “effect on PWT” value ([1]; s.c. 10 μmol/kg) did it give?
Answer: no effect

Question: And the “effect on weight-bearing ratio” value ([2]; s.c. 10 μmol/kg)?
Answer: no effect

Question: And the “effect on limb-use score” value ([3]; s.c. 10 μmol/kg)?
Answer: no effect

Question: For `CN1CC[C@]23c4c5ccc(O)c4O[C@H]2[C@@H](O)C=C[C@H]3[C@H]1C5` [morphine], which “von Frey paw withdrawal threshold, individual animals (Fig 4C)” value (from here on “von Frey paw withdrawal threshold”) ([1]; BL1 (baseline 1)) is on record?
Answer: 1.5 and 0.8 and 0.6 and 1 (2×) and 0.9 and 1.3 and 2 and 1.7 and 1.2

Question: And the “von Frey paw withdrawal threshold” value ([1]; BL2 (baseline 2))?
Answer: 2.9 and 1.1 and 0.8 and 2.6 and 1.3 (2×) and 1.9 and 2.1 (2×) and 1.2

Question: What about the “effect on PWT” value ([1]; s.c. 5 mg/kg) of the same compound?
Answer: partial but significant increase

Question: And the “von Frey paw withdrawal threshold” value ([1]; Post (after treatment))?
Answer: 1.1 (2×) and 1 (2×) and 1.2 (3×) and 0.9 and 1.3 (2×)

Question: And the “von Frey paw withdrawal threshold” value ([1]; Pre (before treatment))?
Answer: 0.6 (2×) and 0.2 (3×) and 0.4 (3×) and 0.5 and 0.3

Question: What about the “static weight bearing (Fig S7C)” value ([2]; BL1) of the same compound?
Answer: 50.01 and 50.76 and 43.99 and 53.97 and 55.19 and 55.68 and 51.81 and 54.18 and 46.08 and 56.67

Question: And the “static weight bearing (Fig S7C)” value ([2]; BL2)?
Answer: 47.61 and 46.15 and 51.95 and 48.94 and 50.73 and 54.51 and 47.91 and 45.61 and 50.32 and 52.04

Question: What about the “static weight bearing (Fig S7C)” value ([2]; Post (after treatment)) of the same compound?
Answer: 30.29 and 34.04 and 29.99 and 42.43 and 37.09 and 45.12 and 35.66 and 34.06 and 42.67 and 36.03

Question: What about the “static weight bearing (Fig S7C)” value ([2]; Pre (before treatment)) of the same compound?
Answer: 24.27 and 31.25 and 36.25 and 30.33 and 34.01 and 33.28 and 32.53 and 29.97 and 30.04 and 32.35

Question: And the “effect on weight-bearing ratio” value ([2]; s.c. 5 mg/kg)?
Answer: partial but significant increase

Question: And the “limb use score (Fig S7B)” value ([3]; BL1)?
Answer: 4

Question: What about the “limb use score (Fig S7B)” value ([3]; BL2) of the same compound?
Answer: 4

Question: What about the “limb use score (Fig S7B)” value ([3]; Post (after treatment)) of the same compound?
Answer: 3 (3×) and 1 (2×) and 2 (4×) and 0

Question: And the “limb use score (Fig S7B)” value ([3]; Pre (before treatment))?
Answer: 2 (3×) and 1 (5×) and 0 (2×)

Question: And the “effect on limb-use score” value ([3]; s.c. 5 mg/kg)?
Answer: partial but significant increase
